Data from ChEMBL document CHEMBL1201862, “PubChem BioAssay data set” (2004).
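Exposure lasted 48 hours, with cells grown in 96-well plates and compounds tested at five concentrations. At the GI50, growth is halved.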 The source made the active and inactive calls. Cut-off read from the data, not from the text of the source: active = GI50 up to about 1.1 µM and inactive = higher.

How the values were obtained:
Assay in all cases: growth of human tumour cells (NCI), 48 h
A498 = tested on: A498
A549 = tested on: A549
COLO 205 = tested on: COLO 205
HL-60 = tested on: HL-60
HOP-92 = tested on: HOP-92
K562 = tested on: K562
MDA-MB-231 = tested on: MDA-MB-231
NCI-H226 = tested on: NCI-H226
NCI-H23 = tested on: NCI-H23
NCI-H460 = tested on: NCI-H460
NCI/ADR-RES = tested on: NCI/ADR-RES
OVCAR-3 = tested on: OVCAR-3
OVCAR-5 = tested on: OVCAR-5
RXF 393 = tested on: RXF 393
SF-295 = tested on: SF-295
SNB-75 = tested on: SNB-75
SR = tested on: SR
TK-10 = tested on: TK-10
U-251 = tested on: U-251
UO-31 = tested on: UO-31

SMILES | GI50 (A498) | GI50 (A549) | GI50 (COLO 205) | GI50 (HL-60) | GI50 (HOP-92) | GI50 (K562) | GI50 (MDA-MB-231) | GI50 (NCI-H226) | GI50 (NCI-H23) | GI50 (NCI-H460) | GI50 (NCI/ADR-RES) | GI50 (OVCAR-3) | GI50 (OVCAR-5) | GI50 (RXF 393) | GI50 (SF-295) | GI50 (SNB-75) | GI50 (SR) | GI50 (TK-10) | GI50 (U-251) | GI50 (UO-31)
NC(=O)c1nc[nH]c1/N=N/SCC(N)C(=O)O (stereo not given) | > 100 µM (inactive) | > 100 µM (inactive) | 21.2 µM (inactive) | 1.26 µM (inactive) | 15.7 µM (inactive) | 2.01 µM (inactive) | 6.04 µM (inactive) | > 44.8 µM (inactive) | > 78.9 µM (inactive) | 12.7 µM (inactive) | 6.58 µM (inactive) | 19.1 µM (inactive) | > 94 µM (inactive) | > 100 µM (inactive) | 6.32 µM (inactive) | 24.3 µM (inactive) | 0.773 µM (active) | 5.32 µM (inactive) | > 80.7 µM (inactive) | 4.22 µM (inactive)
CCOC(=O)c1c(N2CCCC2)ncn(Cc2ccccc2)c1=S | 49.4 µM (inactive) | > 100 µM (inactive) | > 100 µM (inactive) | > 100 µM (inactive) | 19.5 µM (inactive) | 87.5 µM (inactive) | > 100 µM (inactive) | > 100 µM (inactive) | > 100 µM (inactive) | > 100 µM (inactive) | > 100 µM (inactive) | > 100 µM (inactive) | > 100 µM (inactive) | > 100 µM (inactive) | > 100 µM (inactive) | 47.6 µM (inactive) | > 100 µM (inactive) | > 100 µM (inactive) | > 100 µM (inactive) | 55.8 µM (inactive)
